Data taken from patent publication EP0216127B1, “6-Phenoxymethyl-4-hydroxytetrahydropyran-2-ones, process for their preparation, their use as medicines, pharmaceutical compositions and intermediates” (HOECHST AKTIENGESELLSCHAFT, priority 1985, dated 1987).
Where two headings read alike, the source gives them in different places.

Assays:
[1] = target: T1, HMG-CoA-Reduktase (Rattus norvegicus, UniProt P51639); test: Inhibition of HMG-CoA reductase activity in solubilised enzyme preparations from rat liver microsomes; format: biochemical, Ratten; conditions: solubilised enzyme from liver microsomes of cholestyramine-induced rats; substrate (S,R)14C-HMG-CoA; mean of 3 parallel samples; read-out: IC50-Wert M
T1 construct: solubilisierten Enzympräparationen aus Lebermikrosomen von Ratten; from tissue; host or cells: rat liver microsomes (rats induced with cholestyramine after day-night rhythm shift)
T1 sequence (P51639 1-887): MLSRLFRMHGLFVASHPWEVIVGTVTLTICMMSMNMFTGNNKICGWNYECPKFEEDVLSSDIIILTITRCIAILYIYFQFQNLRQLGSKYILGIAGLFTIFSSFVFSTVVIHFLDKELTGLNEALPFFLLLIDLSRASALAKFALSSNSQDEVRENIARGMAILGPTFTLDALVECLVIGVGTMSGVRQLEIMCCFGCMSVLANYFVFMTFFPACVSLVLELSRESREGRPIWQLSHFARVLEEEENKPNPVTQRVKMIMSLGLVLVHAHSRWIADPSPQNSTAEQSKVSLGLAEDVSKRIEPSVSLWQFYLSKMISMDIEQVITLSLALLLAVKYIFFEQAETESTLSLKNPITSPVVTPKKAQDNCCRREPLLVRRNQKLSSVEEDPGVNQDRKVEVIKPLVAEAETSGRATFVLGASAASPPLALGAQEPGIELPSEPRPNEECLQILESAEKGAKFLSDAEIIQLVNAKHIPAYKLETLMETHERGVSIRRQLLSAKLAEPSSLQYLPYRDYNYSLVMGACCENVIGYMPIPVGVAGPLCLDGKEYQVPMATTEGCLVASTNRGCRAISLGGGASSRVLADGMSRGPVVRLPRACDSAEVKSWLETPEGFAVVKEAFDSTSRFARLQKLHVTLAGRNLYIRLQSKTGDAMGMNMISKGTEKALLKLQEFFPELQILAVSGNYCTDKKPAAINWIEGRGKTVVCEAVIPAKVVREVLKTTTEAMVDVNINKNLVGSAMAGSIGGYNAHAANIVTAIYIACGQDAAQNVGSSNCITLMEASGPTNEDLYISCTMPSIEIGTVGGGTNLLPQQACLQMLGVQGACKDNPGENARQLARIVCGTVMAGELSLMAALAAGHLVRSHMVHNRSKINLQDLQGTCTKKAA
Description: 1) Inhibierung der HMG-CoA-Reduktase-Aktivität an solubilisierten Enzympräparationen aus Ratten-Lebermikrosomen
Die HMG-CoA-Reduktase-Aktivität wurde an solubilisierten Enzympräparationen aus Lebermikrosomen von Ratten gemessen, die nach Umstellung im Tag-Nacht-Rhythmus mit Cholestyramin (@Cuemid) induziert wurden. Als Substrat diente (S,R)^14C-HMG-CoA, die Konzentration von NADPH wurde während der Inkubation durch ein regenerierendes System aufrechterhalten. Die Abtrennung von ^14C-Me- valonat von Substrat und anderen Produkten (z.B. ^14C-HMG) erfolgte über Säulenelution, wobei das Elutionsprofil jeder Einzelprobe ermittelt wurde. Auf die ständige Mitführung von ^3H-Mevalonat wurde verzichtet, weil es bei der Bestimmung um die Relativangabe der Hemmwirkung handelt. In eine Versuchsreihe wurden jeweils die enzymfreie Kontrolle, der enzymhaltige Normalansatz (= 100%) und solche mit Präparatezusätzen zusammen behandelt. Jeder Einzelwert wurde als Mittelwert aus 3 Parallelproben gebildet. Die Signifikanz der Mittelwertsunterschiede zwischen präparatefreien und präparatehaltigen Proben wurde nach dem t-Test beurteilt. Nach der oben beschriebenen Methode wurden von den erfindungsgemäßen Verbindungen z.B. folgende Hemmwerte auf die HMG-CoA-Reduktase ermittelt (IC50-Wert M = molare Konzentration der Verbindung, die für eine 50%ige Hemmung erforderlich ist): […]

[2] = target: T2, HMG-CoA-Reduktase (Mus musculus, UniProt Q01237); test: Suppression or inhibition of HMG-CoA reductase in cell cultures of fibroblasts (L cells); format: cell-based; conditions: 3 h incubation of confluent L-Zellen in lipoprotein-free medium; molar concentration for 50% inhibition of HMG-CoA reductase activity
T2 construct: dann wurde die HMG-CoA-Reduktaseaktivität der Zellen, modifiziert nach Chang et al; endogenous in cells; host or cells: L cells (fibroblasts)
T2 sequence (Q01237 1-887): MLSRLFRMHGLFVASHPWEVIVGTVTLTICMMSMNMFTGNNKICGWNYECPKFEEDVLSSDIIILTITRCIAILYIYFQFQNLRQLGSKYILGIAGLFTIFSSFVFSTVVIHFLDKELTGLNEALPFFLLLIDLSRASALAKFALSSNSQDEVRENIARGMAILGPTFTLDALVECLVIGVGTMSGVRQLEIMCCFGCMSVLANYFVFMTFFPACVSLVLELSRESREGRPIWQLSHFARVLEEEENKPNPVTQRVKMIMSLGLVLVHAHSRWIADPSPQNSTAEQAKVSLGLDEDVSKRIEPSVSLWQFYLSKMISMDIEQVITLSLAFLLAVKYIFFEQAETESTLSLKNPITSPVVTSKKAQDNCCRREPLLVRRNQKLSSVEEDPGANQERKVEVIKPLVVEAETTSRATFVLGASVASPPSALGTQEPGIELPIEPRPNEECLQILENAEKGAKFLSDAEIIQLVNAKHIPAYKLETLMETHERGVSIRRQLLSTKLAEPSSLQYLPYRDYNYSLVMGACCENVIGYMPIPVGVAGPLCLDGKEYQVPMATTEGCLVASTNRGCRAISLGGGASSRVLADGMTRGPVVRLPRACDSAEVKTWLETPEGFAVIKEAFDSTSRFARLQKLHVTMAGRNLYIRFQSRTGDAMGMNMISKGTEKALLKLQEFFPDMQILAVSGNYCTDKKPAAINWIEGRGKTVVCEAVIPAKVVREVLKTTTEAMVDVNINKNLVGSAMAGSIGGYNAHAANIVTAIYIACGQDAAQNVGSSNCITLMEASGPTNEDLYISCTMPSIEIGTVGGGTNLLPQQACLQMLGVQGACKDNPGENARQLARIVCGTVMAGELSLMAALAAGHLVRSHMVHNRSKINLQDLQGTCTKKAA
Description: 2. Supprimierung bzw. Inhibierung der HMG-CoA-Reduktase in Zellkulturen von Fibroblasten
Monolayers von Fibroblasten (L-Zellen) in lipoproteinfreiem Nährmedium wurden mit entsprechenden Konzentrationen der Prüfsubstanzen eine bestimmte Zeit (z.B. 3 Stunden) inkubiert, dann wurde die HMG-CoA-Reduktaseaktivität der Zellen, modifiziert nach Chang et al. (J. Biol. Chem. 256, 6174 (1981) bestimmt. Dazu wurden die Zellextrakte mit D, L [^3H]-HMG-CoA inkubiert und das unter der Einwirkung der vorhandenen HMG-CoA-Reduktaseaktivität aus den Zellen gebildete Produkt [3H]-Mevalonat nach Cyclisierung zu [^3H]-Mevalonolacton dünnschichtchromatographisch vom Ausgangsprodukt getrennt und unter Verwendung eines internen Standards von ^14C-Mevalonat die Menge des in der Zeiteinheit gebildeten [3H]-Mevalonats, bezogen auf Zellproteinmenge bestimmt. Die unter Zusatz einer bestimmten Konzentration eines Prüfpräparates gefundene HMG-CoA-Reduktaseaktivität der Zellkultur wurde prozentual auf jene einer gleichbehandelten ohne Prüfpräparat, jedoch gleicher Lösungsmittelkonzentration, bezogen.
Unter der Bedingung einer dreistündigen Inkubationszeit konfluenter L-Zellen im lipoproteinfreien Nährmedium mit den untersuchten Verbindungen wurden folgende für eine 50%ige Hemmung der HMG-CoA-Reduktaseaktivität (ICso) erforderliche molare Konzentration der Prüfpräparate ermittelt: […]

[3] = im Humanversuch; cited from earlier work
[4] = an der Ratte; cited from earlier work

Row | Compound | IC50 [1] [nM] | IC50 [2] [nM] | also measured
1 | C=CCc1cc(Cl)cc(CCCOc2ccc(F)cc2)c1OC[C@@H]1C[C@@H](O)CC(=O)O1 [44 j] | 460 | 100000 | 
2 | O=C1C[C@H](O)C[C@@H](COc2c(Cl)cc(Cl)cc2-c2ccccc2)O1 [44 mm] | 190 |  | 
3 | CC(O)(CC(=O)O)CC(=O)O [3-Hydroxy-3-methyl-glutarsäure] |  |  | cholesterinsenkende Wirkung [3]: signifikante cholesterinsenkende Wirkung; cholesterinsenkende Wirkung [4]: signifikante cholesterinsenkende Wirkung
4 | Cc1cc(C)c(OC[C@@H]2C[C@@H](O)CC(=O)O2)c(Cc2ccc(F)cc2)c1 [44 s] | 400 |  | 
5 | Cc1cc(C)c(OC[C@@H]2C[C@@H](O)CC(=O)O2)c(C(C)c2ccc(F)cc2)c1 (stereo partly drawn) [44 r] | 160 |  | 
6 | Cc1cc(C)c(OC[C@@H]2C[C@@H](O)CC(=O)O2)c(CC2CCCCC2)c1 [44 z] | 100 |  | 
7 | O=C1C[C@H](O)C[C@@H](COc2c(Cl)cc(Cl)cc2C(CCOc2ccc(F)cc2)c2ccc(F)cc2)O1 (stereo partly drawn) [44 dd] | 150 |  | 
8 | Cc1cc(C)c(OC[C@@H]2C[C@@H](O)CC(=O)O2)c(CCOc2ccc(F)cc2)c1 [44 t] | 500 |  | 
9 | COc1ccc(C(c2ccc(F)cc2)c2cc(C)cc(C)c2OC[C@@H]2C[C@@H](O)CC(=O)O2)cc1 (stereo partly drawn) [44 v] | 100 | 40000 | 
10 | O=C1C[C@H](O)C[C@@H](COc2c(Cl)cc(Cl)cc2C(=O)C2CCCCC2)O1 [44 nn] | 190 |  | 
11 | CC(C)(C)C(=O)OCCCc1cc(Cl)cc(CCCOc2ccc(F)cc2)c1OC[C@@H]1C[C@@H](O)CC(=O)O1 [44 l] | 7000 |  | 
12 | Cc1cc(C)c(OC[C@@H]2C[C@@H](O)CC(=O)O2)c(CCc2ccc(F)cc2)c1 [44 m] | 530 |  | 
13 | Cc1cc(C)c(OC[C@@H]2C[C@@H](O)CC(=O)O2)c(C(CC(C)C)c2ccc(F)cc2)c1 (stereo partly drawn) [44 u] | 140 |  | 

Further molecules by falling IC50 [1], results first:

Row | IC50 [1] [nM] | IC50 [2] [nM] | Compound | also measured
14 | 100 |  | Cc1cc(Cl)cc(C(c2ccc(F)cc2)c2ccc(F)cc2)c1OC[C@@H]1C[C@@H](O)CC(=O)O1 [44 bb] | 
15 | 75 | 15000 | Cc1cc(Cl)cc(CC2CCCCC2)c1OC[C@@H]1C[C@@H](O)CC(=O)O1 [44 y] | 
16 | 75 | 10000 | Cc1cc(Cl)cc(CCCOc2ccc(F)cc2)c1OC[C@@H]1C[C@@H](O)CC(=O)O1 [44 i] | 
17 | 70 | 50000 | Cc1cc(C)c(OC[C@@H]2C[C@@H](O)CC(=O)O2)c(C(c2ccc(F)cc2)c2ccc(F)cc2)c1 [44 q] | 
18 | 50 | 14000 | Cc1cc(Cl)cc(CCCOc2ccc(Cl)cc2)c1OC[C@@H]1C[C@@H](O)CC(=O)O1 [44 x] | 
19 | 50 |  | Cc1cc(C(c2ccc(F)c(C)c2)c2cc(Cl)cc(C)c2OC[C@@H]2C[C@@H](O)CC(=O)O2)ccc1F [44 hh] | 
20 | 25 |  | O=C1C[C@H](O)C[C@@H](COc2c(Cl)cc(Cl)cc2CC2CCCCC2)O1 [44 kk] | 
